Calls of active or inactive are those of the source.
How the values were obtained:
A549 = assay: Cytotoxicity against human A549 cells by SRB method; assay type: functional, cell-based
Candida albicans = assay: Antimicrobial activity against Candida albicans by agar dilution method; assay type: functional, organism-based
Klebsiella aerogenes = assay: Antimicrobial activity against Enterobacter aerogenes by agar dilution method; assay type: functional, organism-based
Bel-7402 = assay: Cytotoxicity against human BEL-7402 cells by SRB method; assay type: functional, cell-based
Staphylococcus aureus = assay: Antimicrobial activity against Staphylococcus aureus by agar dilution method; assay type: functional, organism-based
Bacillus subtilis = assay: Antimicrobial activity against Bacillus subtilis by agar dilution method; assay type: functional, organism-based
P388 = assay: Cytotoxicity against mouse P388 cells by MTT assay; assay type: functional, cell-based
HL-60 = assay: Cytotoxicity against human HL60 cells by MTT assay; assay type: functional, cell-based
Escherichia coli = assay: Antimicrobial activity against Escherichia coli by agar dilution method; assay type: functional, organism-based
[1] = biological target: Mu-type opioid receptor (Rattus norvegicus) (UniProt P33535); assay: Displacement of [3H]DAMGO from rat mu opioid receptor expressed in GH3 cells; assay type: cell-based
Chain of Mu-type opioid receptor (Rattus norvegicus) (P33535 whole entry): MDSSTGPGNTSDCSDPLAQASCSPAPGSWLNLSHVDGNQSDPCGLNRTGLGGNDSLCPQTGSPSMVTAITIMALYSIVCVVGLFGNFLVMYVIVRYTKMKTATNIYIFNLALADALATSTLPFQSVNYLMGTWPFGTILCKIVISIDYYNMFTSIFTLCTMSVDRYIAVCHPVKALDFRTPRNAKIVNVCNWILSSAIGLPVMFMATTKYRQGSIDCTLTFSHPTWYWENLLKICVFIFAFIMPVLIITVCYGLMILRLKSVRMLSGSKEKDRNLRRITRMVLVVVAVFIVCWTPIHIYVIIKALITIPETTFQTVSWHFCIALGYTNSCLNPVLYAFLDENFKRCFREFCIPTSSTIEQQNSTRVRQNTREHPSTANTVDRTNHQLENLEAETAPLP

Measured: Activity

CCCCCCCCCC(=O)O[C@H]1[C@H](O[C@@H]2[C@@H](O)[C@H]3OC(=O)CCCCCCCCCC[C@H](CCCCC)O[C@@H]4O[C@H](C)[C@H](O)[C@H](O)[C@H]4O[C@@H]3O[C@H]2C)O[C@@H](C)[C@H](O[C@@H]2O[C@@H](C)[C@H](OC(=O)C(C)C)[C@@H](OC(=O)/C=C/c3ccccc3)[C@H]2O)[C@H]1O[C@@H]1O[C@@H](C)[C@H](O)[C@@H](O)[C@H]1O
inactive: all assays above

Reference: ChEMBL document CHEMBL1151768, “Resin glycoside constituents of Ipomoea pes-caprae (beach morning glory)” (J Nat Prod, 2008)
